This note sets out measurements from patent publication US7241737B2, “Urotensin-II agonists and antagonists” (priority 2000, dated 2007).

Entries after “also recorded” stand apart in the source; their conditions may differ. Bridge positions count the residues as written; N and C are the ends. Ends that are not written are not given here.

Experiment [1] has as its system rat aorta contraction. Briefly: Peptide-induced contraction of rat aorta rings (agonist activity). As for the experimental part:
Male Sprague-Dawley rats (250-350 g), which had been quarantined for 5-7 days prior to the experiments, were sacrificed by decapitation (experiments were approved by the Advisory Committee For Animal Resources, Tulane University School of Medicine). The thoracic aorta was dissected, freed from connective tissue, and cut into rings of about 1.5 mm in width. The rings were suspended in a 15 ml organ bath containing high potassium Kreb's solution (9.15 g/L potassium chloride, 2.1 g/L sodium bicarbonate, 1.0 g/L glucose, 0.16 g/L potassium phosphate monobasic, 0.14 g/L magnesium sulfate (anhydr.), and 0.22 g/L calcium chloride (dihydr.))
Optimal tension was applied (0.2 g) to the tissues and the bath medium was maintained at 37° C. and bubbled with a mixture of 95% O2/5% CO2. […] Changes in arterial smooth muscle tension were recorded isometrically using a force-displacement transducer (Radnoti), and a AcqKnowledge ACK100 Version 3.2 (BIOPAC Systems, Inc., Santa Barbara, Calif.)
In siliconized glass tubes, peptides were dissolved in dionized water at a concentration of 1 μg/1 μL (stock solution) and then diluted 1:10 with sterile BSA-saline solution (0.1% BSA, fraction V, Sigma, St. Louis in 0.9% NaCl). […] Peptide-induced changes in tension of the aorta rings were recorded by force-displacement transducers and processed by the computer system BIOPAC Inc., as described above. […]

Experiment [2] has as its target T1, U-II receptors (Rattus norvegicus, UniProt P49684).
T1 construct: from tissue; host or cells: rat thoracic aorta (circular strips / rings)
T1 sequence (P49684 1-386): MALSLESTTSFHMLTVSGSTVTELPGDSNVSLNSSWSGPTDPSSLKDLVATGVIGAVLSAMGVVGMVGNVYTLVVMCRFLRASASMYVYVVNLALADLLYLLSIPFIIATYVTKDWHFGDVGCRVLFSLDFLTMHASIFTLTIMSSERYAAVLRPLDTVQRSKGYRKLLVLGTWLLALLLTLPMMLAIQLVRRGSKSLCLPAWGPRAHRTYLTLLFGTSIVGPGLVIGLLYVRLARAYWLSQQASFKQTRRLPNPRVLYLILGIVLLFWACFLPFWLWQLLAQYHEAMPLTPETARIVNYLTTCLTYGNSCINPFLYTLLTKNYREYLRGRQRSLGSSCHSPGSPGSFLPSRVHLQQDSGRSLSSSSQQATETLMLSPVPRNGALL
The experiment can be described thus: Binding to U-II receptors (rat aorta tissue).

As to “Asp-c[Cys-Phe-Trp-Lys-Tyr-Cys]-Val-OH (DCFWKYCV-OH; disulfide 2-7 (inferred))”, in experiment [1], the “potency in inducing rat aorta contraction relative to full human and fish U-II” value was “greater potency than the full human and fish U-II sequences; also recorded: more potent than the full human and fish sequences”. For the same substance, in experiment [2], the “potency in binding to rat aorta tissue relative to full human and fish U-II” value is “greater potency than the full human and fish U-II sequences”.
